From patent US5066783A, “Antiviral peptides and means for treating herpes infections” (priority 1988, dated 1991) come the findings set out here.

For assay [1], the target named is T1, herpes simplex viral ribonucleotide reductase (Human herpesvirus 1, UniProt P08543).
T1 construct: endogenous in cells
Put plainly: biochemical. The format is biochemical, herpes simplex virus.

The target of assay [2] is ribonucleotide reductase from HSV-1 (strain F)-infected BHK-21/C13 cells (Human herpesvirus 1, UniProt P08543). Put plainly: HSV-1 ribonucleotide reductase (CDP reductase) inhibition. To be noted: 75 μg protein extract.
Sequence of ribonucleotide reductase from HSV-1 (strain F)-infected BHK-21/C13 cells (P08543 whole entry): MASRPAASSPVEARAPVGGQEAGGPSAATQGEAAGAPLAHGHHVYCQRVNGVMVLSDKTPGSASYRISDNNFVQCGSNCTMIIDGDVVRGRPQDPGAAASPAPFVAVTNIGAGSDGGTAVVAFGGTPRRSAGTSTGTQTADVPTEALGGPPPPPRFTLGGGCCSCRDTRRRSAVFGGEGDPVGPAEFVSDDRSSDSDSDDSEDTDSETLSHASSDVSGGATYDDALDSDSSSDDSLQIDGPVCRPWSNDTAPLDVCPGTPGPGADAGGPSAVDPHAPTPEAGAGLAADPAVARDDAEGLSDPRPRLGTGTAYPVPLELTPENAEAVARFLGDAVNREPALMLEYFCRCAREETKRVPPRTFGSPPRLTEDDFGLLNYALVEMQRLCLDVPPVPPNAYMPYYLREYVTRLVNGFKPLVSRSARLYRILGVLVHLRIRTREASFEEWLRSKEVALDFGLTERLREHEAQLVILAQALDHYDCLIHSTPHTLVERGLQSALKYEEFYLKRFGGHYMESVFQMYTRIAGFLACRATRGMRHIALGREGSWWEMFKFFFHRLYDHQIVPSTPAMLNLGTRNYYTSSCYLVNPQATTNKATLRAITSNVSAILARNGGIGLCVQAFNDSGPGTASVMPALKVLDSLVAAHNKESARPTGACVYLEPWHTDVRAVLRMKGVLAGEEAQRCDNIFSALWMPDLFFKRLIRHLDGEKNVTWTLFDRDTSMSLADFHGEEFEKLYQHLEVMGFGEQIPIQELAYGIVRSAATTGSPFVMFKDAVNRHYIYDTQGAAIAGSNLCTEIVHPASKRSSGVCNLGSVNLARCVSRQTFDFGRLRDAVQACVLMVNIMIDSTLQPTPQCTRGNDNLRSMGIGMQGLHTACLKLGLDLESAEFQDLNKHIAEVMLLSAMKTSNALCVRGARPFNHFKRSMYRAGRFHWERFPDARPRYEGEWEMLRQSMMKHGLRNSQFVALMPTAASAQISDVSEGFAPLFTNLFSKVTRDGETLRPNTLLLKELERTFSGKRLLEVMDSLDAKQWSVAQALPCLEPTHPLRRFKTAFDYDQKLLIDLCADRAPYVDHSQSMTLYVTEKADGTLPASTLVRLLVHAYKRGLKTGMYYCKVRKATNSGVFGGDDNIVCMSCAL
Setting [3] is: IC50 (concentration producing 50% of the maximal inhibition of enzyme activity).
The mark [4] stands for this setting: read-out: IC50 (concentration producing 50% of the maximal inhibition of enzyme activity).
Where [5] appears, read: 75 μg enzyme preparation (21.6 units mg^-1), mean of four assays.
The mark [6] stands for this setting: read-out: IC50 (concentration producing 50% of the maximal inhibition of enzyme activity), 75 μg enzyme preparation (21.6 units mg^-1), mean of four assays.

Several values for one entry are separate records, joined by “and”; a condition that tells them apart may be missing. Identical values can stand only once. Like-named read-outs stand apart in the source and are kept apart here. Where a SMILES comes first, the peptide text is derived from it. Where no end group is shown, it is not given here. [ ]: non-standard residue; d: D form. The star is where a group is joined. Phe(4-NO2) = N[C@@H](Cc1ccc([N+](=O)[O-])cc1)C(=O)O; Phe(4-NH2) = Nc1ccc(C[C@H](N)C(=O)O)cc1; Desaminotyrosyl = O=C(CCc1ccc(O)cc1)*

T1 sequence (P08543 whole entry): as above

In assay [1], `CC[C@H](C)[C@H](NC(=O)[C@@H](NC(=O)[C@H](Cc1ccc(OC)cc1)NC(C)=O)C(C)C)C(=O)N[C@@H](CC(N)=O)C(=O)N[C@@H](CC(=O)O)C(=O)N[C@@H](CC(C)C)C(=O)O` [Ac--Tyr(OMe)--Val--Ile--Asn--Asp--Leu--OH] (Ac-Y(Me)VINDL-OH) had an IC50 of 24 µM.

“H-FAGAVVNDL-OH [H--Phe--Ala--Gly--Ala--Val--Val--Asn--Asp--Leu--OH]”: the IC50 in assay [1] amounted to 68 µM. Take “Ac-YSGTVINDL-OH [Ac--Tyr--Ser--Gly--Thr--Val--Ile--Asn--Asp--Leu--OH]”: the IC50 in assay [1] (setting [3]) is 1.9 µM.

As for “Ac-YGAVVNDL-OH [Ac--Tyr--Gly--Ala--Val--Val--Asn--Asp--Leu--OH]”, the IC50 in assay [1] (setting [4]) turned out to be 150 µM. In assay [1] (setting [5]), “H-HAGAVVNDL-OH [H--His--Ala--Gly--Ala--Val--Val--Asn--Asp--Leu--OH]” displayed an IC50 of 400 µM. As to “Ac-YAATVINDL-OH [Ac--Tyr--Ala--Ala--Thr--Val--Ile--Asn--Asp--Leu--OH]”, in assay [1], the IC50 stood at 15 µM. “Ac-YVINDL-OH [Ac--Tyr--Val--Ile--Asn--Asp--Leu--OH]”: in assay [1], the IC50 amounted to 27 µM. The same measure, in the same setting: the same measure for “Ac-YSVINDL-OH [Ac--Tyr--Ser--Val--Ile--Asn--Asp--Leu--OH]”: 77 µM.

In the case of “H-YAGAVVNDI-OH [H--Tyr--Ala--Gly--Ala--Val--Val--Asn--Asp--Ile--OH]”, the IC50 in assay [1] stood at 110 µM. As for `CC(=O)N[C@@H](Cc1ccc(O)cc1)C(=O)N[C@@H](C)C(=O)NCC(=O)N[C@@H](C)C(=O)N[C@H](C(=O)N[C@H](C(=O)N[C@@H](CC(N)=O)C(=O)N[C@@H](CC(=O)O)C(=O)N[C@@H](CC(C)C)C(=O)O)C(C)C)C(C)C` [Ac--Tyr--Ala--Gly--Ala--Val--Val--Asn--Asp--Leu--OH], the IC50 in assay [1] (setting [4]) was determined as 20 µM.

As to “Ac-YAGTVINDL-OH [Ac--Tyr--Ala--Gly--Thr--Val--Ile--Asn--Asp--Leu--OH]”, the IC50 in assay [1] (setting [3]) is 2 µM and 5.2 µM. In assay [1] (setting [5]), `CC(C)C[C@H](NC(=O)[C@H](CC(=O)O)NC(=O)[C@H](CC(N)=O)NC(=O)[C@@H](NC(=O)[C@@H](NC(=O)[C@H](C)NC(=O)CNC(=O)[C@H](C)NC(=O)[C@H](Cc1ccc(O)cc1)NC(=O)CCCCCCCN)C(C)C)C(C)C)C(=O)O` [NH2 (CH2)7 CO--Tyr--Ala--Gly--Ala--Val--Val--Asn--Asp--Leu--OH] showed an IC50 of 12.3 µM. The compound “H-YAPAVINDL-OH [H--Tyr--Ala--Pro--Ala--Val--Ile--Asn--Asp--Leu--OH]” came in with an IC50 in assay [1] of 37 µM. In assay [1], “H-YAGAVLDDL-OH [H--Tyr--Ala--Gly--Ala--Val--Leu--Asp--Asp--Leu--OH]” showed an IC50 of 90 µM. In assay [1], “Ac-YVVNDL-OH [Ac--Tyr--Val--Val--Asn--Asp--Leu--OH]” yielded an IC50 of 31 µM.

“Ac-YAGVVINDL-OH [Ac--Tyr--Ala--Gly--Val--Val--Ile--Asn--Asp--Leu--OH]” registered an IC50 in assay [1] (setting [3]) of 4.3 µM. In the case of “H-YAGPVVNDL-OH [H--Tyr--Ala--Gly--Pro--Val--Val--Asn--Asp--Leu--OH]”, the IC50 in assay [1] (setting [6]) stood at 48 µM. The same measure, in the same setting: the result for “Ac-YAVVNDL-OH [Ac--Tyr--Ala--Val--Val--Asn--Asp--Leu--OH]” reads 330 µM. Take `CC(=O)N[C@@H](Cc1ccc(O)cc1)C(=O)N[C@H](C)C(=O)NCC(=O)N[C@@H](C)C(=O)N[C@H](C(=O)N[C@H](C(=O)N[C@@H](CC(N)=O)C(=O)N[C@@H](CC(=O)O)C(=O)N[C@@H](CC(C)C)C(=O)O)C(C)C)C(C)C` [Ac--Tyr--D--Ala--Gly--Ala--Val--Val--Asn--Asp-- Leu--OH]: the IC50 in assay [1] (setting [4]) was found to be 230 µM. In the case of `CC[C@H](C)[C@H](NC(=O)[C@H](CC(=O)O)NC(=O)[C@H](CC(N)=O)NC(=O)[C@@H](NC(=O)[C@@H](NC(=O)[C@H](C)NC(=O)CNC(=O)[C@H](C)NC(=O)[C@H](Cc1ccc(O)cc1)NC(=O)[C@@H](N)Cc1ccc([N+](=O)[O-])cc1)C(C)C)C(C)C)C(=O)O` [H--(4-NO2 -Phe)--Tyr--Ala--Gly--Ala--Val--Val--Asn--Asp--Ile--OH] (H-[Phe(4-NO2)]YAGAVVNDI-OH), in assay [1] (setting [5]), the IC50 was determined as 6.8 µM. The compound `CC[C@H](C)[C@H](NC(=O)[C@@H](NC(=O)CCc1ccc(O)cc1)C(C)C)C(=O)N[C@@H](CC(N)=O)C(=O)N[C@@H](CC(=O)O)C(=O)N[C@@H](CC(C)C)C(=O)O` [desamino-Tyr--Val--Ile--Asn--Asp--Leu--OH] (Desaminotyrosyl-VINDL-OH) displayed an IC50 in assay [1] of 17 µM. For “H-YVVNDL-OH [H--Tyr--Val--Val--Asn--Asp--Leu--OH]”, in assay [1], the IC50 worked out at 81 µM. On the same count and under the same terms, the same measure for “Ac-YAGTVIQDL-OH [Ac--Tyr--Ala--Gly--Thr--Val--Ile--Gln--Asp--Leu--OH]”: 36.5 µM. For “Ac-YAGFVINDL-OH [Ac--Tyr--Ala--Gly--Phe--Val--Ile--Asn--Asp--Leu--OH]”, in assay [1] (setting [5]), the IC50 was 4.2 µM. Regarding “H-YAVVNDL-OH [H--Tyr--Ala--Val--Val--Asn--Asp--Leu--OH]”, the IC50 in assay [1] (setting [4]) amounted to 340 µM.

For the compound `COc1ccc(C[C@H](N)C(=O)N[C@@H](C)C(=O)NCC(=O)N[C@@H](C)C(=O)N[C@H](C(=O)N[C@H](C(=O)N[C@@H](CC(N)=O)C(=O)N[C@@H](CC(=O)O)C(=O)N[C@@H](CC(C)C)C(=O)O)C(C)C)C(C)C)cc1` [H--Tyr(OMe)--Ala--Gly--Ala--Val--Val--Asn--Asp--Leu--OH], the IC50 in assay [1] (setting [4]) is 88 µM.

In assay [1] (setting [5]), “H-YAGTVINDL-OH [H--Tyr--Ala--Gly--Thr--Val--Ile--Asn--Asp--Leu--OH]” showed an IC50 of 15 µM. On to `CC[C@H](C)[C@H](NC(=O)[C@H](CC(=O)O)NC(=O)[C@H](CC(N)=O)NC(=O)[C@@H](NC(=O)[C@@H](NC(=O)[C@H](C)NC(=O)CNC(=O)[C@H](C)NC(=O)[C@H](Cc1ccc(O)cc1)NC(=O)[C@@H](N)Cc1ccc(N)cc1)C(C)C)C(C)C)C(=O)O` [H--(4-NH2 -Phe)--Tyr--Ala--Gly--Ala--Val--Val--Asn--Asp--Ile--OH] (H-[Phe(4-NH2)]YAGAVVNDI-OH), for which, in assay [1] (setting [5]), the IC50 is 15 µM.

H-YTMLVVDDL-OH [EBV 7-15]: the “% CDP REDUCTASE ACTIVITY” value is 100% in assay [2] (10 μM peptide); 100% in assay [2] (25 μM peptide); 100% in assay [2] (50 μM peptide); 70% in assay [2] (100 μM peptide); 10% in assay [2] (400 μM peptide). In the case of H-STSYAGAVVNDL-OH [HSV 4-15], the “% CDP REDUCTASE ACTIVITY” value in assay [2] (10 μM peptide) was found to be 87%; in assay [2] (25 μM peptide), 71%; in assay [2] (50 μM peptide) it was 47%; in assay [2] (100 μM peptide) it was 18%; in assay [2] (400 μM peptide) it was 11%. On to `CC(=O)N[C@@H](Cc1ccc(O)cc1)C(=O)N[C@@H](C)C(=O)NCC(=O)N[C@@H](C)C(=O)N[C@H](C(=O)N[C@H](C(=O)N[C@@H](CC(N)=O)C(=O)N[C@@H](CC(=O)O)C(=O)N[C@@H](CC(C)C)C(N)=O)C(C)C)C(C)C` [Ac--Tyr--Ala--Gly--Ala--Val--Val--Asn--Asp--Leu--NH2], for which, in assay [1] (setting [6]), the IC50 is 76 µM. With “Ac-Y(Ac)AGFVINDL [Ac--Tyr(OAc)--Ala--Gly--Phe--Val--Ile--Asn--Asp--Leu--OH]”, the IC50 in assay [1] (setting [5]) was 14 µM. Consider “H-YSGAVVNDL-OH [H--Tyr--Ser--Gly--Ala--Val--Val--Asn--Asp--Leu--OH]”, for which the IC50 in assay [1] (setting [5]) is 90 µM. On to `CC(=O)N[C@H](Cc1ccc(O)cc1)C(=O)N[C@@H](C)C(=O)NCC(=O)N[C@@H](C)C(=O)N[C@H](C(=O)N[C@H](C(=O)N[C@@H](CC(N)=O)C(=O)N[C@@H](CC(=O)O)C(=O)N[C@@H](CC(C)C)C(=O)O)C(C)C)C(C)C` [Ac--D--Tyr--Ala--Gly--Ala--Val--Val--Asn--Asp--Leu--OH], for which the IC50 in assay [1] (setting [4]) was determined as 165 µM. The same measure, in the same setting: the result for `CC(C)C[C@H](NC(=O)[C@H](CC(=O)O)NC(=O)[C@H](CC(N)=O)NC(=O)[C@@H](NC(=O)[C@@H](NC(=O)[C@H](C)NC(=O)CNC(=O)[C@H](C)NC(=O)[C@@H](N)Cc1ccc(O)cc1)C(C)C)C(C)C)C(N)=O` [H--Tyr--Ala--Gly--Ala--Val--Val--Asn--Asp--Leu--NH2] reads 190 µM. Compound “Ac-FVINDL-OH [Ac--Phe--Val--Ile--Asn--Asp--Leu--OH]” displayed an IC50 in assay [1] of 42 µM. Consider `COc1ccc(C[C@H](NC(C)=O)C(=O)N[C@@H](C)C(=O)NCC(=O)N[C@@H](C)C(=O)N[C@H](C(=O)N[C@H](C(=O)N[C@@H](CC(N)=O)C(=O)N[C@@H](CC(=O)O)C(=O)N[C@@H](CC(C)C)C(=O)O)C(C)C)C(C)C)cc1` [Ac--Tyr(OMe)--Ala--Gly--Ala--Val--Val--Asn--Asp--Leu--OH], for which the IC50 in assay [1] (setting [6]) turned out to be 40 µM. In assay [1], “Ac-YAGTIVNDL-OH [Ac--Tyr--Ala--Gly--Thr--Ile--Val--Asn--Asp--Leu--OH]” had an IC50 of 4.9 µM.

With “H-KYAGAVVNDL-OH [H--Lys--Tyr--Ala--Gly--Ala--Val--Val--Asn--Asp--Leu--OH]”, in assay [1] (setting [6]), the IC50 was found to be 68 µM.
